Where no end group is shown, it is not given here.
Legend:
[1] = system: Methicillin resistant S. aureus (MRSA); assay type: cell-based, Staphylococcus aureus; conditions: broth microdilution (CLSI), 64 to 0.125 μg/mL, 24 h at 35 °C, human clinical isolate
Method: Tissue expression of devil cathelicidin prepropeptides was determined by real-time PCR on a range of secretory, immune, reproductive, gastrointestinal and respiratory tissues, as well as BLAST searches of the milk transcriptome. Opportunistic tissue samples for real-time PCR were collected from Taronga Zoo (Sydney) from devils which were subject to euthanasia due to old age and advanced disease. The mature peptides of all six devil cathelicidins were synthesised by ChinaPeptides Co. Ltd. and their antimicrobial activity against bacterial and fungal pathogens determined by broth microdilution susceptibility assay according to clinical laboratory standards institute guidelines. Antimicrobial activity was expressed as minimum inhibitory concentration (MIC). Cytotoxicity was assessed in the human cell line A549 and haemolytic activity determined against human blood. Statistical significance of peptide effect on cell survival in comparison to the untreated control was calculated using a one sample t-test. Pouch microbiome analysis was performed on swabs from the pouch of lactating and non-lactating devils to detect changes in microbe populations. Pouch swab collection was carried out in accordance with the Save the Tasmanian Devil Program and was approved by the Animal Ethics Committee of the University of Sydney (permit number 681). […]
base (YNB) for fungi, from a concentration of 64μg/mL to 0.125μg/mL in a final volume of 100 μL .
Two antibiotics, ampicillin and tetracycline, were included as a positive control for bacteria, and the antifungal drug fluconazole for fungi. A well containing cells and media only was used as a “no drug” control to ensure that cultures grew normally. […] Colonies were resuspended in saline and the OD530 measured with a McFarland reader. […] Assays Antimicrobial activity was expressed as minimum inhibitory concentration (MIC), which was defined as the lowest concentration of cathelicidin preventing visible growth, relative to the negative control. […]
DMEM and positive control of dimethylsulfoxide (DMSO) (1%) were also included. Following incubation for a further 24 hours, cell viability was determined using alamar blue (Invitrogen) which was added to each well. The plates were incubated for 24 hours, then the absorption measured at 570nm and 620nm using the Victor 3 multilabel plate reader (PerkinElmer). […] To x i city of cathelicidins was calculated according to Invitrogen recommendations and expressed as percentage cell survival compared to the untreated growth control. […]
Haemolytic activity was assessed using 10mL of human blood collected into potassium -ED T A […]

human red blood cells = assay type: cell-based; conditions: red cells of human, 24 h
Method: Tissue expression of devil cathelicidin prepropeptides was determined by real-time PCR on a range of secretory, immune, reproductive, gastrointestinal and respiratory tissues, as well as BLAST searches of the milk transcriptome. Opportunistic tissue samples for real-time PCR were collected from Taronga Zoo (Sydney) from devils which were subject to euthanasia due to old age and advanced disease. […] Ltd. and their antimicrobial activity against bacterial and fungal pathogens determined by broth microdilution susceptibility assay according to clinical laboratory standards institute guidelines. Antimicrobial activity was expressed as minimum inhibitory concentration (MIC). Cytotoxicity was assessed in the human cell line A549 and haemolytic activity determined against human blood. Statistical significance of peptide effect on cell survival in comparison to the untreated control was calculated using a one sample t-test. Pouch microbiome analysis was performed on swabs from the pouch of lactating and non-lactating devils to detect changes in microbe populations. Pouch swab collection was carried out in accordance with the Save the Tasmanian Devil Program and was approved by the Animal Ethics Committee of the University of Sydney (permit number 681). page 3: […] Two antibiotics, ampicillin and tetracycline, were included as a positive control for bacteria, and the […] A well containing cells and media only was used as a “no drug” control to ensure that cultures grew normally. Bacteria were subcultured on Mueller Hinton agar (MHA) or Sheep blood agar (BA) for 24 hours at 35 °C for Staphylococcus spp., Pseudomonas spp., Enterococcus spp. and E.coli, with 5% CO2 for Streptococcus spp., K.pneumoniae, P.multocida, […] Similarly, fungi were subcultured on Sabouraud agar (SAB) at 35 °C for 24 hours prior to the test. Colonies were resuspended in saline and the OD530 measured with a McFarland reader. If necessary the suspension was diluted to 0.45-0.55 McFarland units with saline. […] Assays Antimicrobial activity was expressed as minimum inhibitory concentration (MIC), which was defined as the lowest concentration of cathelicidin preventing visible growth, relative to the negative control. Colonies which grew on agar plates were also counted. Cytotoxicity Cytotoxicity was assessed in the human A549 cell line maintained in Dulbecco’s Modification of Eagle’s Medium (DMEM) supplemented with 10% foetal bovine serum (FBS), 2mM L -glutamine, 50units/mL penicillin and 50μg/mL streptomycin. […] Following incubation for a further 24 hours, cell viability was determined using alamar blue (Invitrogen) which was added to each well. […]

KRIGLIRLIGKILRGLRRLG [Saha-CATH5]
MIC [1]: 32 µg/mL

KRMGIFHLFWAGLRKLGNLIKNKIQQGIENFLG [Saha-CATH3]
haemolysis compared with the positive control (human red blood cells): below 7%
